Here are results for one substance from patent US11813264B2, “PAR1 modulation to alter myelination” (Mayo Foundation for Medical Education and Research, priority 2014, dated 2023).

The test system of one assay is Oli-neu oligodendrocytes. The assay can be described thus: Process retraction in Oli-neu oligodendrocytes (Phalloidin+ processes per cell). It counts as cell-based, mouse. To be noted: 24 hours, PAR1-AP 100 μM, Klk1 300 nM. The protocol: Oli-neu oligodendrocytes are derived from mouse primary oligodendrocyte cultures retrovirally transduced to constitutively express the t-neu oncogene (Jung et al., Eur J Neurosci 7:1245-1265, 1995). All morphology, signaling, and myelin gene expression studies using Oli-neu oligodendrocytes were performed in media containing DMEM, 1% N2, 2 mM Glutamax, 1 mM sodium pyruvate, 20 mM HEPES buffer, and 50 μM β-mercaptoethanol (Sigma Aldrich. To evaluate PAR and Klk6 gene expression in Oli-neu (Table 2), cells were differentiated by treatment with 1 mM N^6, 2′-O-dibutyryladenosine 3′, 5′-cyclic monophosphate disodium salt (dbcAMP) for 72 hours prior to harvesting for RNA isolation. All cells were maintained at 37° C. in 95% air and 5% CO2. Cell culture reagents were obtained from Life Technologies (Carlsbad, CA) unless otherwise indicated. All cell culture experiments were performed in triplicate and repeated at least twice.
PAR agonist-induced changes in oligodendrocyte morphology: To determine the effects of recombinant Klk6, Klk1, thrombin, or PAR1-AP on oligodendroglia, 3 DIV PAR1^+/+, PAR1^−/−, and PAR2^−/− oligodendrocytes, PAR1^+/+ OPCs immediately post purification, or Oli-neu cells were grown on cover slips in the presence of agonists for 24 h. For ATP toxicity assays, oligodendrocytes were incubated with ATP (50 μM, Sigma Aldrich) in the presence of Klk6 or Klk1. Following each treatment, oligodendrocyte and OPC cultures were immunolabeled for O4 to visualize the cell body and processes. Oli-neu processes were visualized by staining the actin cytoskeleton with Cy3-conjugated Phalloidin.
To assess the effects of Klk6 and other PAR1 agonists on oligodendrocyte morphology and process stability, 20× digital micrographs were overlaid with a 780 μm^2 grid and ImageJ software 1.45r (National Institutes of Health) used to record cell number and the number of processes crossing horizontal grid lines (Scarisbrick et al., Brain 125:1283-1296, 2002). Data are expressed as the mean number of O4^+ or Phalloidin^+ processes per DAPI^+ cell (±SEM).

In a further assay the test system is Erk1/2 phosphorylation. As to the kind of experiment: Klk6-PAR signaling assay, Erk1/2 phosphorylation by Western blot in Oli-neu. It counts as cell-based, mouse. The note with it: treatment alone; Klk6 10 minutes. The protocol:
Klk6-PAR signaling assays: To examine the ability of Klk6 to mediate PAR-dependent signaling in oligodendrocytes, Oli-neu oligodendroglia (3.5×10^5 cells/well in six-well plates) were treated with Klk6 (150 nM) for 10 min, followed by protein harvest. Cell lysates were analyzed for phosphorylated or nonphosphorylated Erk1/2 by Western blot. In experiments to determine the role of PARs in Klk6 signaling, Oli-neu were preincubated with the PAR1 antagonist, SCH79797 dihydrochloride (50 nM, Tocris Biosciences, Minneapolis, MN) for 30 minutes prior to Klk6 application.
Western blot: Oli-neu lysates were obtained using a buffer containing 1% NP40, 0.5% deoxycholate, 10% glycerol, and 20 mM Tris base and separated on SDS-polyacrylamide gels prior to transfer. Membranes were blocked with 5% milk in TBS-T and incubated overnight with primary antibodies including rabbit anti-phospho-Erk1/2 (1:1,000, Cell Signaling Technology, Danvers, MA), followed with a species-appropriate horseradish peroxidase-conjugated secondary antibody (1:20,000 GE Healthcare Unlimited, UK). Signal was detected using Chemiluminescence Supersignal Pico (Pierce, Rockford, IL). Western blots were repeated three times from independent cultures, scanned, and quantified by densitometry (BioRad Quantity One 1-D Analysis Software, BioRad, Hercules, CA). Erk1/2 signal was normalized to its nonphosphorylated form. Equal loading was verified by reprobing blots for […] (Novus Biologicals, Littleton, CO).

The test system of the next assay is spinal cord white matter. As to the kind of experiment: Microinjection of Klk6 or PAR1-AP into spinal cord dorsal column white matter. It counts as in vivo, mouse. The protocol:
In vivo effects of excess Klk6 or PAR1-AP in spinal cord white matter: All mice were administered Buprenorphine preoperatively (Buprenex, 0.03 mg/kg, intraperitoneal (i.p.), Reckitt Benckise, Slough, UK) and every 12 hours for the first 48 hours following surgery. Surgical anesthesia was induced in age-matched male C57BL6/J or PAR12/2 mice using Ketamine (Ketaset, 80 mg/kg, Fort Dodge Animal Health, Fort Dodge, IA) and Xylazine i.p. (Anased, 10 mg/kg, Lloyd Laboratories, Shenendoah, IA). A thoracic (T11-T12) laminectomy was performed and a 30-40 μm glass capillary needle inserted into a 10 μL gas-tight Hamilton Syringe (Hamilton Company, Reno, NV) used to deliver 2 μL of Klk6 (0.01 μg/μL (300 nM)), PAR1-AP (0.01 μg/μL (100 μM)), or vehicle (physiologic saline) alone (n=3 for each treatment group) using a stereotaxic injection system (Stoelting, Wood Dale, IL). Under micromanipulator control (MyNeurolab, Richmond, IL), the needle was inserted 350 μm into the dorsal column, infusion carried out over 5 minutes and the needle left in place for 3 minutes to avoid backflow. All mice received 0.5 mL of sterile saline and Baytril (2.5 mg/kg, Bayer Healthcare, Shawnee Mission, KS) i.p. postoperatively.
Seventy-two hours after microinjection of PAR1 agonists, mice were deeply anesthetized with Nembutal (50 mg/kg, i.p., Lundbeck, Deerfield, IL) and perfused transcardially with 4% PFA. Two millimeter transverse spinal cord segments encompassing the microinjection epicenter as well as 2 mm rostral and caudal were embedded in paraffin. Six micrometer sections were cut and slide mounted serially. Every sixth slide was stained with hematoxylin and eosin (H&E). Adjacent sections were immunostained for oligodendroglia using an antibody specific for CC-1/APC (ab16794, AbCam, Cambridge, MA), myelin using an antibody recognizing MBP (MAB386, Millipore, Bedford, MA), and standard avidin-biotin immunoperoxidase techniques (Scarisbrick et al., J Comp Neurol 431:347-361, 2001; and Scarisbrick et al. 2012b, supra). Stained sections were cover slipped with Permount (Fisher Scientific, Pittsburgh, PA) containing 2 mg/mL bisbenzamide to visualize nuclei (Sigma Aldrich).
Measurements of white matter lesion area were based on signs of pathology (vacuolation, tissue destruction, hemorrhage) in 20× digital images of H&E stained sections. The largest lesion area in each animal was used to determine mean maximal lesion area and expressed in μm^2. The integrity of MBP immunoreactivity was assessed in sections for 2,000 μm rostrocaudal to the microinjection site. The number of dorsal column CC-1^+/DAPI^+ cells was quantified in sections across […] of spinal cord extending rostrocaudal to the epicenter. The mean area of dorsal column white matter in the intact spinal cord was approximately […]. To put the number of CC-1^+ oligodendrocytes into context, the mean number CC-1V cells per mm^2 was evaluated as the mean number per […]. Sections stained for CC-1 were also stained for GFAP (Sigma Aldrich), allowing for the exclusion of CC-1^+ astrocytes; however, no examples of double labeled cells were observed.

As for “Klk6: Recombinant murine kallikrein-related peptidase 6 expressed using a baculovirus system”, in the assay with Oli-neu oligodendrocytes (Klk6 30 nM), the Oli-neu cell number result is recorded as “small but significant increase”. The “number of processes per cell” value in the assay with Oli-neu oligodendrocytes (Klk6 30, 150, 300 nM, thrombin 270 nM) is “significant and dose-dependent”. In addition, the Erk1/2 phosphorylation entry in the assay on Erk1/2 phosphorylation is “nearly four-fold increase”. In the assay on spinal cord white matter (PAR1+/+ mice), the “maximal lesion area relative to saline alone” value is on record as “enhanced”, the “reduction of CC-1+ cells in dorsal column white matter” value is reported as around 15% and the “rostrocaudal white matter pathology versus saline alone” value is “two-fold greater”. For the same substance, the “loss of MBP-immunoreactivity relative to saline alone” value in the assay with spinal cord white matter (PAR1+/+ mice, 72 hours) is on record as around 45%. Moreover, the “white matter surrounding injection site with vacuolating myelinopathy, tissue destruction and hemorrhage” value in the assay on spinal cord white matter (PAR1+/+ mice, 0.02 μg total, 72 hours) was “over 1,200 μm”. Further, the “rostrocaudal white matter pathology” value in the assay on spinal cord white matter (PAR1+/+ mice, 0.02 μg, 72 hours) was 1,242.0±95.3 μm. In addition, the white matter pathology result in the assay on spinal cord white matter (PAR1-/- mice) was “largely absent”.
